From US20240109925A1, “Enhanced Anti-Proliferative and Antitumor Immune Effects of Mitochondria-Targeted Hydroxyurea” (The Medical College of Wisconsin, Inc., priority 2021, published 2024) come the findings set out here.

For one test, the target named is mitochondrial complex I (Homo sapiens, UniProt O75251+O75306+P03886). Briefly: Complex I-dependent oxygen consumption (OCR), Seahorse XF-96, HCT116 cells. Conditions: mean ± SD; HCT116, 24 hr treatment; read-out: IC50 Complex I (FIG. 2). In kind it is cell-based. The method, then:
(§1) FIG. 2. Effects of HU and Mito-HUs on the oxygen consumption by mitochondrial complexes I and III (A) Dose-dependent effects of HU, Mito10-HU, Mito12-HU, Mito14-HU, Mito16-HU, and Mito20-HU on complex I- and complex III-dependent oxygen consumption were measured in HCT116 cells. HCT116 cells were treated with HU or Mito-HUs as indicated for 24 hr. Mitochondrial complex I activity (left) and complex III activity (right) were monitored by a Seahorse XF-96 analyzer. Either rotenone (complex I inhibitor) or antimycin A (complex III inhibitor) was acutely added and OCR assayed immediately. (B) The mitochondrial complex I (left) and III (right) dependent oxygen consumption (calculated as rotenone or antimycin A inhibitable OCR) are plotted against concentration of HU and Mito-HUs. Dashed lines represent the fitting curves used for determination of the IC50 values. Data shown are the means G SD.
(§2) Mitochondrial oxygen consumption was measured using the Seahorse XF-96 Extracellular Flux Analyzer (Agilent, North Billerica, MA) (Cheng et al., 2013, 2016; Boyle et al., 2018; Weinberg and Chandel, 2015). After cells were treated with HU or Mito-HUs for 24 hr, the OCR-based assessment of mitochondrial complex activities was carried out on acutely permeabilized cells in the presence of different mitochondrial substrates, i.e., pyruvate/malate for complex I and duroquinol for complex III (Cheng et al., 2016, 2019; Salabei et al., 2014; Wheaton et al., 2014). Rotenone, malonate, and antimycin A (Sigma-Aldrich, St. Louis, MO) were used as specific inhibitors of mitochondrial complexes I, II, and III, respectively. Briefly, cells that were intact after treatments were immediately permeabilized using the Seahorse XF Plasma Membrane Permeabilizer (Agilent). The mitochondrial complex I-induced OCR was assayed in mannitol and sucrose buffer (Salabei et al., 2014) containing 10 mM pyruvate and 1.5 mM malate (substrates for complex I) and 10 mM malonate (which inhibits complex II activities). The mitochondrial complex III-driven OCR was assayed in a mannitol and sucrose buffer containing 0.5 mM duroquinol (substrate for complex III) as well as […] and 10 mM malonate (which inhibit both complex I and II activities). The IC50 values were determined as previously reported (Cheng et al., 2019).

Test [1] has as its target T1, mitochondrial complex III (Homo sapiens, UniProt P00156+P47985).
T1 construct: other: mean ± SD; HCT116, 24 hr treatment; Complex III activity (OCR, % of control); other: 0.1 μM, 24 hr, HCT116; n = 4; other: 0.5 μM, 24 hr, HCT116; other: 0.75 μM, 24 hr, HCT116; other: 1 μM, 24 hr, HCT116; Compl
Briefly: Complex III-dependent oxygen consumption (OCR), Seahorse XF-96, HCT116 cells. In kind it is cell-based. Conditions: mean ± SD; HCT116, 24 hr treatment; read-out: IC50 Complex III (FIG. 2). The method, then: as §1, §2

The test system of a further test is CD4 T cells. Briefly: In vitro differentiation of CD4 T cells (Treg / IFNg-YFP Teff), flow cytometry. In kind it is cell-based, mouse. From the text: FIG. 4. Effects of Mito10-HU on in vitro differentiation of CD4 T cells (A) The gating strategy reflects data from one DMSO control sample. First, the total population of cells was gated (FSC-A vs SSC-A). Then, single cells were gated (SSC-W vs SSC-H). Within the single cell population, we gated on the live CD4 T cells using a fixable LIVE/DEAD stain (CD4 vs DEAD). Within the live CD4 T cells we gated on CD25+FOXP3+Tregs (FOXP3 vs CD25), as well as IFNg-YFP+CD4 T cells (IFNg-YFP vs CD4). (B) Live CD4 T cells were gated within the single cell populations, at varying concentrations of Mito10-HU, along with DMSO controls (B, top row). CD25+FOXP3+Tregs (B, middle row) and IFNg-YFP+CD4 T cells (B, bottom row) were gated within the live CD4 T cell populations, at varying concentrations of Mito10-HU, along with DMSO controls. (C) Effects of Mito10-HU on live CD4+T cells within the lymphocyte gate (C, left), the frequency of FOXP3+CD25+cells within the live CD4+T cells (C, middle), and Teff function is shown as the frequency of IFNg-YFP positive cells within the live CD4+T cells (C, right). Data shown are the means & SD, n=2 per treatment group. *p<0.05, **p<0.01 vs control.
To differentiate CD4^+ T cells into a Treg phenotype, splenocytes from SMARTA triple-reporter mice were processed and the red blood cells were lysed using an ACK (ammonium-chloride-potassium) lysis buffer. The cells were then activated with […] GP61-80 peptide (GenScript, Piscataway, NJ) and 5 ng/mL TGF-b1 (Shenandoah Biotechnology, Inc., Warwick, PA). After one day of initial skewing, […] IL-2 along with HU or Mito-HUs (n=4-20) of varying concentrations were added to the culture. Cells were cultured for six days and split once cells reached confluency; cells were replenished with IL-2 and compound (i.e., MitoHUs) accordingly. After six days in culture, cells were stained to assess the viability and phenotypic analysis via flow cytometry. LIVE/DEAD fixable violet or aqua dead cell stain (Invitrogen) was used to assess cell viability. Only live cells were gated out for further functional analysis by using a fixable LIVE/DEAD stain. First, total population of cells was gated (FSC-A vs SSC-A). Then, single cells were gated (SSC-W vs SSC-H). Within the single cell population, we gated on the live CD4 T cells using a fixable Live/Dead stain (CD4 vs DEAD). Within the live CD4 T cells, we gated on CD25^+FOXP3^+ Tregs (FOXP3 vs CD25), as well as IFNg-YFP^+ CD4 T cells (IFNg-YFP vs CD4).
The following antibodies were used for flow cytometry staining: APC-Cy7 anti-mouse CD4 (clone: GK1.5; BioLegend, San Diego, CA), APC anti-mouse CD25 (clone: PC61; BioLegend), and PE anti-mouse FOXP3 (clone: FJK-165; eBioscience, San Diego, CA). Flow cytometry data were acquired using a BD Celesta flow cytometer (BD Biosciences, San Jose, CA) flow cytometer and analyzed using FlowJo (Treestar, Inc., Ashland, OR) (FlowJo Software, 2019).
In general terms: In flow cytometry, cells or beads pass a laser one at a time.

As usually defined, the IC50 is the concentration needed to halve the response being measured. Turning to `NC(=O)NOCCCCCCCCCCCCCCCCCCCC[P+](c1ccccc1)(c1ccccc1)c1ccccc1.O=C([O-])C(F)(F)F` [Mito20-HU, 20-[(carbamoylamino)oxy]-eicosanyltriphenylphosphonium trifluoroacetate], the figures for the concentration for half-maximal inhibition (IC50) (at mitochondrial complex I; in test [1]) were 800 ± 60 nM and 4200 ± 400 nM, respectively. The “lowest concentration with maximal effect on Teff activation” value in the test with CD4 T cells (IFNg-YFP) stood at 0.3 mM. Also, the “Concentration with Maximum Effect on IFN -YFP” value in the test on CD4 T cells (tested concentration with maximum effect, six days culture) was found to be 0.3 µM.
